Laboratory results as given in PubChem BioAssay (NCI).
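Growth conditions: 96-well plates. Treatment: test compound, 48 hours, 5 concentrations. Analysis: linear interpolation between bracketing concentrations; unreached endpoints set to highest concentration. GI50: concentration for 50% inhibition of growth. TGI denotes the concentration required for complete inhibition of growth.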

Legend:
Test in all cases: NCI-60 cell line screen, 48 h
SR leukemia = system: SR leukemia
HOP-62 NSCLC = system: HOP-62 NSCLC
NCI-H226 lung = system: NCI-H226 lung
SK-MEL-28 melanoma = system: SK-MEL-28 melanoma
SF-268 CNS = system: SF-268 CNS
KM12 colon = system: KM12 colon
OVCAR-5 ovarian = system: OVCAR-5 ovarian
UACC-62 melanoma = system: UACC-62 melanoma
SK-MEL-5 melanoma = system: SK-MEL-5 melanoma
RPMI-8226 leukemia = system: RPMI-8226 leukemia

Row | SMILES | GI50 (SR leukemia) [µM] | TGI (SR leukemia) [µM] | GI50 (HOP-62 NSCLC) [µM] | TGI (HOP-62 NSCLC) [µM] | GI50 (NCI-H226 lung) [µM] | TGI (NCI-H226 lung) [µM] | GI50 (SK-MEL-28 melanoma) [µM] | TGI (SK-MEL-28 melanoma) [µM] | GI50 (SF-268 CNS) [µM] | TGI (SF-268 CNS) [µM] | GI50 (KM12 colon) [µM] | TGI (KM12 colon) [µM] | GI50 (OVCAR-5 ovarian) [µM] | TGI (OVCAR-5 ovarian) [µM] | GI50 (UACC-62 melanoma) [µM] | TGI (UACC-62 melanoma) [µM] | GI50 (SK-MEL-5 melanoma) [µM] | TGI (SK-MEL-5 melanoma) [µM] | GI50 (RPMI-8226 leukemia) [µM] | TGI (RPMI-8226 leukemia) [µM]
1 | OCc1cn(Cc2cccc(Cl)c2)c2ccccc12 | 12.3 | 44.1 | 9.74 | 47.3 | 0.0313 | 0.222 | 20.5 | 60.9 | 14 | 38.1 | 16.2 | 33.8 | 2.63 | 8.89 | < 0.0199 | 1.5 | 11 | 23.7 | 0.632 | 20
2 | O=C(O)C(=Cc1ccnc2ccccc12)C(=O)O |  | > 100 |  | > 100 |  | > 100 |  | > 100 |  | > 100 |  | > 100 |  | > 100 |  | > 100 |  | > 100 |  | > 100
3 | Cc1cn(C2CC(F)C(CO)O2)c(=O)[nH]c1=O (stereo not drawn) | > 100 | > 100 | > 100 | > 100 | > 100 | > 100 | > 100 | > 100 |  |  | > 100 | > 100 | > 100 | > 100 | > 100 | > 100 | > 100 | > 100 | > 100 | > 100
4 | C/C(O)=C(\N=O)C(=O)NCCc1ccccc1 |  | > 100 |  | > 100 |  | > 100 |  | > 100 |  | > 100 |  | > 100 |  | > 100 |  | > 100 |  | > 100 |  | > 100
5 | Cc1ccc(C(CN(C)C)C(=O)c2ccccc2)cc1 (stereo not drawn) | 1.03 | 6.47 | 12.2 | 27.5 | 2.97 | 20.9 | 2.83 | 8.37 | 3.13 | 13 | 4 | 14.7 | 4.23 | 15.8 | 1.85 | 4.33 | 3.67 | 13.6 | 1.12 | 4.28
6 | Clc1ccc(Cl)c2[s+]snc12 |  | > 100 |  | > 100 |  | > 100 |  | > 100 |  | > 100 |  | > 100 |  | > 100 |  | > 100 |  | > 100 |  | > 77.6
7 | Cc1ccccc1-c1c(N)nc(NC#N)nc1C(=O)Nc1ccccc1 |  | > 100 |  | > 100 |  | > 100 |  | > 100 |  | > 100 |  | > 100 |  | > 100 |  | > 100 |  | > 100 |  | > 100
8 | Cc1c(N=Nc2ccc([N+](=O)[O-])cc2)nc2scc(-c3ccccc3)n12 |  | 56.4 |  | > 100 |  | > 100 |  | > 100 |  | > 100 |  | > 100 |  | > 100 |  | > 100 |  | > 100 |  | > 100
9 | CN(C)CCCn1c2c(c3cnccc3c1=O)C(=O)c1ccccc1-2 | 0.095 | 0.793 | 0.402 | 7.75 | 0.388 | 2.85 | 0.508 | 2.59 | 0.62 | 7.24 | 0.488 | 9.58 | 0.558 | 9.04 | 0.309 | 1.46 | 0.363 | 1.48 | 0.337 | 1.65
